The source of these data is PMC12429841, “Monothiooxalamide–Benzothiazole Hybrids: Predictive Docking on HDAC6, Synthesis, Molecular Structure, and Antiproliferative Activity on Breast Cancer Cells” (International Journal of Molecular Sciences, 2025).

In assay [1] the test system is MCF-7 cells. The experiment in a line: Antiproliferative activity, MTT assay, MCF-7. Format: cell-based, human. The following applies: for IC50: Homo sapiens, MCF7, MTT, mean ± SD of at least three independent experiments. On the procedure: (§1) The antiproliferative effect of monothiooxalamides 1a–d and 2a–d was assessed in MCF-7 (human breast cancer cell line with estrogen, progesterone, and glucocorticoid receptors), MDA-MB-231 (triple-negative human breast cancer), MCF-10A (non-tumorigenic human mammary epithelial cell line), and NIH/3T3 (mouse fibroblast). The cytotoxicity is expressed as IC50 values in micromolar concentrations, Table 4. […] In contrast, the cytotoxic effect on triple-negative cells MDA-MB-231 was similar to that observed in MCF-10A. […] Nevertheless, it is worth considering that NIH/3T3 are mouse fibroblasts, while the other three cell lines are human cells; therefore, the physiological differences between both species could play an essential role in the exerted effect. Several studies have evaluated 2-aminobenzothiazole derivatives against various cell lines. The targets of this kind of compounds are wide, including HDAC6, tyrosine kinase receptors family (CSF1R kinase, EGFR kinase, VEGFR-2 kinase, FAK kinase), serine/threonine kinases, lysine-specific demethylase (LSD1), phosphoinositide 3-kinase (PI3K), topoisomerases (I and II), Heat shock protein (HSP90), p53, nuclear receptor binding set (NSD1), microsomal prostaglandin E synthase-1 (mPGES-1), and also as chelators of metal ions, which are necessaries for critical biological processes such as gene expression, oxygen transport, and cell respiration. In all cases, the IC50 values were reported in a wide range, from 1 nM to 50 µM. On the other hand, our research group reported a family of MTAs containing 2-aminopyridine, with an activity range of 0.19–18 µM against several human cancer cell lines (A2780-wt, A2780-cis-MSTO-211H, and HT-29). […] Whereas 1c could be a feasible candidate to obtain better results compared with 1a, 2a–c, which were highly cytotoxic to non-tumorigenic cells. As a perspective, the synergic activity of 1c, in combination with antioxidants like curcumin, resveratrol, and quercetin, could also be explored, with the aim to sensitize cancer cells against cytotoxic agents and diminish their toxicity in non-tumorigenic cells. In contrast, MTX, which is an antineoplastic drug, is widely used for many kinds of cancer treatments, including breast cancer. Their mechanism of action is related to the inhibition of dihydrofolate reductase (DHFR). […] Nevertheless, MTX exerted an undesirable effect on NIH/3T3 cells. Although the compounds were not better than MTX, their antiproliferative effect was similar to 2ABT, thioureas, 3-carboxy-coumarin sulfonamides, pyrimethamine conjugates, and N-hydroxycinnamide analogs. Highlighting its low toxicity to non-tumor cells, 1c might be a better option than methotrexate to reduce adverse side effects associated with chemotherapy.
(§2) MDA-MB-231 adenocarcinoma cell line was procured from ATCC (CRM-HTB-26TM). […] Cell culture was performed in the appropriate medium for each cell line (MCF-7, MDA-MB-231, MCF-10A, and NIH/3T3). MCF-7, MDA-MB-231, and NIH/3T3 cells were grown in Dulbecco’s modified Eagle Medium (DMEM) high-glucose with phenol red, supplemented with fetal bovine serum inactivated by heat (10%) (BioWest, Miami, FL, USA) and antibiotic (100 U/mL penicillin and […] streptomycin). MCF-10A were grown in DMEM-F12 medium, supplemented with 5% of horse serum inactivated by heat (Biowest, Miami, FL, USA), […] of insulin, 20 ng/mL of epidermal growth factor, 500 ng/mL hydrocortisone, and antibiotic (100 U/mL penicillin and […] streptomycin). All cell lines were incubated at 37 °C with 5% CO2 after reaching 80% confluence at 24 h. The cells were seeded in a 96-well cell culture plate (10,000 cells/well). After incubation, the cells were treated with compounds (1a–1d and 2a–2d) at varying concentrations (100, 50, 25, 12.5, and 6.25 µM) and then incubated for 42 h under standard conditions. […]
On the technique in general: Formazan colour is commonly taken as a measure of viable cells.

Assay [2] relates to MDA-MB-231 cells. In words: Antiproliferative activity, MTT assay, MDA-MB-231. In kind it is cell-based. The following applies: Homo sapiens, mean ± SD of at least three independent experiments. On the procedure: as §1, §2
The next assay has as its system MCF-10A cells. The experiment in a line: Antiproliferative activity, MTT assay, MCF-10A. Format: cell-based. The following applies: Homo sapiens, non-tumorigenic cells, mean ± SD. On the procedure:
as §1, §2

In assay [3] the test system is NIH/3T3 cells. The experiment in a line: Antiproliferative activity, MTT assay, NIH/3T3. Format: cell-based. The following applies: NIH3T3, mouse fibroblast, mean ± SD. On the procedure:
as §1
as §2, with “streptomycin).” for “streptomycin). All cell lines were incubated at 37 °C with 5% CO2 after reaching 80% confluence at 24 h. The cells were seeded in a 96-well cell culture plate (10,000 cells/well). After incubation, the cells were treated with compounds (1a–1d and 2a–2d) at varying concentrations (100, 50, 25, 12.5, and 6.25 µM) and then incubated for 42 h under standard conditions.”

In assay [4] the test system is MDA-MB-231 cells. The experiment in a line: Wound closure (cell migration) assay. In kind it is cell-based, human. The following applies: MDA-MB-231, treated at IC50 concentration; for wound closure rate: 0-48 h; for maximum wound closure: 48 h. On the procedure:
The triple-negative cancer, produced by MDA-MB-231 cells, is highly invasive and metastatic, capable of migrating to other tissues. […] The wound closure begins at 12 h, at this time, there is a significant difference between cells treated with compound 1c and MTX compared with non-treated cells. Nevertheless, the maximum effect is observed at 48 h, when wound closure is complete for non-treated cells. For cells treated with compound 1c, the maximum wound closure was 51%, while for the reference drug, MTX, it was 38% at 48 h. In both cases, there is a significant difference from the control, with wound closure rates of −2.0 ± 0.1 (R = 0.98), −1.0 ± 0.1 (R = 0.94), and −0.7 ± 0.1 (0.88) in %area/h for control, 1c, and MTX, respectively. The results confirmed the capability of 1c to prevent cell migration in MDA-MB-231 cells, similar to the reference drug MTX, and other reported BTs.
The wound closure assay was performed according to the reported methods on MDA-MB-231 cell line. For this purpose, cells (2 × 10^5) were seeded in complete medium on a 24-well plate and incubated for 24 h under standard conditions. After that, the wound gap was made by scratching the cell monolayer with a 200 µL pipette tip. Cell debris and exhausted medium were discarded, washed with PBS, and the medium was replaced. […] The wound closure was monitored by microscopy at 12, 24, and 48 h, and the wound area was measured in duplicate in three independent experiments using ImageJ (1.54k) software. The results were expressed as a percentage of the control (cell culture medium with 0.1% DMSO).

For assay [5], the system named is MCF-7 cells. In words: Annexin V apoptosis induction assay, MCF-7. Format: cell-based, human. As to conditions: MCF-7, IC50 concentration, 48 h. The text has this: (§3) Apoptosis induction is one of the most common mechanisms of cell death exerted by antineoplastic drugs. This is because cancer cells can evade this cell death mechanism, allowing malignant cells to survive and leading to tumor progression. Apoptosis involves several physiological cell modifications, including the destabilization of the phospholipid bilayer and the subsequent exposure of phosphatidylserine. This phospholipid can be easily recognized by annexin V, a protein that is useful for identifying apoptotic cells. Therefore, apoptosis was determined for both breast cancer human cell lines, MCF-7 and MDA-MB-231, and the NIH/3T3 non-tumoral cell line. […] Regarding non-malignant fibroblast cells (NIH/3T3), a slight decrease in live cells was observed only for compound 1c (60%) compared to the control (81%) and MTX (72%), as shown in Figure 12.
(§4) The annexin V cytometry assay was performed on malignant cells (MCF-7 and MDA-MB-231) and non-malignant cells (NIH/3T3) using the Annexin V-FITC Apoptosis Detection kit (Santa Cruz Biotechnology). The corresponding cells were seeded in a 12-well plate as previously described and incubated under standard conditions (1.5 × 10^5 cells/well). After 24 h of incubation, the exhausted medium was replaced, and cells were treated at the IC50 concentration for compound 1c and MTX. […]

The test system of assay [6] is MDA-MB-231 cells. The experiment in a line: Annexin V apoptosis induction assay, MDA-MB-231. As to conditions: MDA-MB-231, IC50 concentration, 48 h. Format: cell-based, human.
From the text: as §3
The annexin V cytometry assay was performed on malignant cells (MCF-7 and MDA-MB-231) and non-malignant cells (NIH/3T3) using the Annexin V-FITC Apoptosis Detection kit (Santa Cruz Biotechnology). The corresponding cells were seeded in a 12-well plate as previously described and incubated under standard conditions (1.5 × 10^5 cells/well). After 24 h of incubation, the exhausted medium was replaced, and cells were treated at the IC50 concentration for compound 1c and MTX. After 48 h, the exhausted medium was recovered for cytometric measurements, and the cells were trypsinized, inactivated with DMEM, centrifuged, washed with PBS and centrifuged (1500 rpm, 5 min, 4 °C). The PBS was removed, and the remainder was drained on gauze. The formed pellet was shaken with 300 µL of the buffer from the flow cytometry kit (Miltenyi Biotec, Bergisch Gladbach, Germany), which had previously been prepared at a concentration of 1%. The sample was left to incubate for 15 min at room temperature, protected from light, and then 100 µL aliquots were taken to the flow cytometry equipment (BD FACSAria Fusion, Franklin Lakes, NJ, USA). Five microliters of annexin and two microliters of propidium iodide (100 µg/mL) were added to the reaction with the cells. […]

In assay [7] the test system is NIH/3T3 cells. The experiment in a line: Annexin V apoptosis induction assay, NIH/3T3. Format: cell-based, mouse. As to conditions: NIH/3T3, IC50 concentration, 48 h; control 81%.
From the text: as §3, §4

A value given as a limit tells only on which side of the number the result lay.

With `O=C(Nc1nc2ccccc2s1)C(=S)NCc1ccccc1` [1a, N-(benzo[d]thiazol-2-yl)-2-(benzylamino)-2-thioxoacetamide], the IC50 in the assay on MCF-7 cells [1] turned out to be 95 ± 13 µM; in the assay on MDA-MB-231 cells [2], 72 ± 7 µM; with MCF-10A cells it was 44 ± 6 µM; with NIH/3T3 cells [3], 29 ± 6 µM.

For `COc1ccccc1CNC(=S)C(=O)Nc1nc2ccccc2s1` [1b, N-(benzo[d]thiazol-2-yl)-2-((2-methoxybenzyl)amino)-2-thioxoacetamide], the IC50 in the assay with MCF-7 cells [1] and in the assay with MDA-MB-231 cells [2] was greater than 100 µM throughout.

In the case of `COc1ccc(CNC(=S)C(=O)Nc2nc3ccccc3s2)cc1` [1c, N-(benzo[d]thiazol-2-yl)-2-((4-methoxybenzyl)amino)-2-thioxoacetamide], the IC50 worked out at 32 ± 5 µM in the assay on MCF-7 cells [1], 52 ± 8 µM in the assay on MDA-MB-231 cells [2], 55 ± 6 µM in the assay on MCF-10A cells and 41 ± 5 µM in the assay with NIH/3T3 cells [3]. In addition, the “selectivity toward malignant cells, fold more active in MCF-7 than in MCF-10A” value in the assay with MCF-7 cells [1] (MCF-7 vs MCF-10A) stood at 1.7 fold. The “fold more active on MCF-7 cells than on MDA-MB-231 cells” value in the assay on MCF-7 cells [1] (MCF-7 vs MDA-MB-231) came to 1.6 fold. Besides, the wound closure rate with MDA-MB-231 cells [4] is listed as −1.0 ± 0.1 %area/h. In the assay with MDA-MB-231 cells [4], this compound gave a maximum wound closure of 51%. Further, the “late apoptosis cell population” value in the assay on MCF-7 cells [5] is listed as “significant increase”. In addition, the “effect on cell viability” value with MDA-MB-231 cells [6] is on record as “did not show a significant effect”. For the same compound, in the assay on NIH/3T3 cells [7], the live cells is on record as 60%.

Turning to `O=C(Nc1nc2ccccc2s1)C(=S)NCCc1ccccc1` [1d, N-(benzo[d]thiazol-2-yl)-2-(phenethylamino)-2-thioxoacetamide], the IC50 in the assay on MCF-7 cells [1] and in the assay with MDA-MB-231 cells [2] was greater than 100 µM throughout.

On to `Cc1ccc2nc(NC(=O)C(=S)NCc3ccccc3)sc2c1` [2a, 2-(benzylamino)-N-(6-methylbenzo[d]thiazol-2-yl)-2-thioxoacetamide], for which the IC50 is 72 ± 9 µM in the assay on MCF-7 cells [1], greater than 100 µM with MDA-MB-231 cells [2], 43 ± 6 µM in the assay on MCF-10A cells and 22 ± 4 µM in the assay on NIH/3T3 cells [3].

Consider `COc1ccccc1CNC(=S)C(=O)Nc1nc2ccc(C)cc2s1` [2b, 2-((2-methoxybenzyl)amino)-N-(6-methylbenzo[d]thiazol-2-yl)-2-thioxoacetamide], for which the IC50 with MCF-7 cells [1] was greater than 100 µM; in the assay with MDA-MB-231 cells [2], greater than 100 µM; in the assay on MCF-10A cells, 42 ± 5 µM.

On to `COc1ccc(CNC(=S)C(=O)Nc2nc3ccc(C)cc3s2)cc1` [2c, 2-((4-methoxybenzyl)amino)-N-(6-methylbenzo[d]thiazol-2-yl)-2-thioxoacetamide], for which the half-maximal inhibitory concentration (IC50) with MCF-7 cells [1] was 88 ± 6 µM; in the assay with MDA-MB-231 cells [2], greater than 100 µM; in the assay on MCF-10A cells it was 74 ± 12 µM; in the assay on NIH/3T3 cells [3] it was 31 ± 6 µM.

As for `Cc1ccc2nc(NC(=O)C(=S)NCCc3ccccc3)sc2c1` [2d, N-(6-methylbenzo[d]thiazol-2-yl)-2-(phenethylamino)-2-thioxoacetamide], the IC50 in the assay with MCF-7 cells [1] and in the assay with MDA-MB-231 cells [2] was greater than 100 µM each time.

`CN(Cc1cnc2nc(N)nc(N)c2n1)c1ccc(C(=O)N[C@@H](CCC(=O)O)C(=O)O)cc1` [MTX, methotrexate, reference compound]: the IC50 in the assay with MCF-7 cells [1] turned out to be 0.8 ± 0.1 µM; in the assay with MDA-MB-231 cells [2], 28 ± 3 µM; in the assay with MCF-10A cells, 14 ± 3 µM; with NIH/3T3 cells [3], 26 ± 5 µM. Moreover, the wound closure rate in the assay on MDA-MB-231 cells [4] was −0.7 ± 0.1 %area/h. Also, the maximum wound closure with MDA-MB-231 cells [4] is given as 38%. Further, the “late apoptosis cell population” value in the assay with MCF-7 cells [5] is reported as “significant increase”. In the assay on MDA-MB-231 cells [6], the “effect on cell viability” value is on record as “did not show a significant effect”. Besides, the “percentage of late apoptotic cells” value in the assay with MDA-MB-231 cells [6] (non-treated cells 14%) came out at 9%. Also, the live cells in the assay with NIH/3T3 cells [7] amounted to 72%.

Usually IC50 stands for the concentration that inhibits the measured activity by half.
